Counter-ions that a name gives are not always drawn. Like-named read-outs stand apart in the source and are kept apart here.
How the values were obtained:
SARS-CoV-2 PLpro-NAB = SARS-CoV-2 PLpro-NAB (Severe acute respiratory syndrome coronavirus 2, UniProt P0DTD1); assay: biochemical
SARS-CoV-2 Mpro = SARS-CoV-2 Mpro (Severe acute respiratory syndrome coronavirus 2, UniProt P0DTD1); type: biochemical; settings: 10 μM; 1 mM DTT
SARS-CoV-2 PLpro = SARS-CoV-2 PLpro (Severe acute respiratory syndrome coronavirus 2, UniProt P0DTD1); type: biochemical; settings: dose-response, ISG15 substrate
[1] = read-out: HC PLpro-NAB SARS-CoV-2 inhibition [%] 20 µM triplicates DTT BUFFER
[2] = read-out: HP PLpro-NAB SARS-CoV-2 inhibition [%] 20 µM triplicates L-CYS BUFFER

Compound: CC1(C)C(=O)N=C2C1=C(O)C(=O)c1ccccc12 [BVT-948]
- Interference inhibition [%] 20 µM based on product interference DTT BUFFER (Table S1, 20 µM, DTT buffer): -137.72%

Compound: CC(C)Nc1cccnc1N1CCN(C(=O)c2cc3cc(NS(C)(=O)=O)ccc3[nH]2)CC1 [Delavirdine (mesylate), Delavirdine]
- inhibition at 20 µM (SARS-CoV-2 PLpro-NAB; [1]): 52.2%
- inhibition at 20 µM (SARS-CoV-2 PLpro-NAB; [2]): -69.3%
- Interference inhibition [%] 20 µM based on product interference DTT BUFFER: -20.91%

Compound: O=C(O)c1c(Cl)c(Cl)c(Cl)c(Cl)c1-c1c2cc(I)c(=O)c(I)c-2oc2c(I)c(O)c(I)cc12 [Rose Bengal Sodium]
- inhibition at 20 µM (SARS-CoV-2 PLpro-NAB; Table S1, 20 µM, DTT buffer, average (SD), read-out: HC PLpro-NAB SARS-CoV-2 inhibition [%] 20 µM triplicates DTT BUFFER): 107%
- inhibition at 20 µM (SARS-CoV-2 PLpro-NAB; Table S1, 20 µM, L-cysteine buffer, average (SD), read-out: HP PLpro-NAB SARS-CoV-2 inhibition [%] 20 µM triplicates L-CYS BUFFER): -32.4%
- IC50 (SARS-CoV-2 PLpro-NAB; Table S1, DTT buffer, read-out: HP PLpro-NAB SARS-CoV-2 IC50 [µM] triplicates DTT BUFFER): > 20 µM
- IC50 (SARS-CoV-2 PLpro-NAB; Table S1, L-cysteine buffer, read-out: HP PLpro-NAB SARS-CoV-2 IC50 [µM] duplicates L-CYS BUFFER): > 20 µM
- Interference inhibition [%] 20 µM based on product interference DTT BUFFER (Table S1, 20 µM, DTT buffer): 12.07%

Compound: O=c1c(O)cccc2cc(O)c(O)c(O)c12 [purpurogallin]
- Inhibition in L-cysteine buffer versus DTT buffer (dose-response) (SARS-CoV-2 PLpro-NAB; 1 mM L-cysteine vs 1 mM DTT): increased inhibition
- Inhibitory activity on retest in 1 mM L-cysteine (SARS-CoV-2 PLpro-NAB; 50% inhibition at 20 μM, 1 mM L-cysteine): retained their inhibitory activity
- inhibition at 20 µM (SARS-CoV-2 PLpro-NAB; read-out: HC PLpro-NAB inhibition [%] 20 μM triplicates 1 mM DTT buffer): 62.8%
- inhibition at 20 µM (SARS-CoV-2 PLpro-NAB; read-out: HP PLpro-NAB inhibition [%] 20 μM triplicates 1 mM L-cys buffer): 101%
- Interference inhibition [%] 20 µM based on product interference DTT BUFFER (Table S1, 20 µM, DTT buffer): 12.84%
- Preference PLpro over Mpro (SARS-CoV-2 Mpro): preferential inhibition of PLpro over Mpro
- Potency against PLpro compared with PLpro-NAB (SARS-CoV-2 PLpro): higher potency against PLpro compared with PLpro-NAB

Compound: O=c1ccc2[n+]([O-])c3ccc(O)cc3oc-2c1 [Resazurin (sodium salt), Resazurin]
- inhibition at 20 µM (SARS-CoV-2 PLpro-NAB; [1]): 72.9%
- inhibition at 20 µM (SARS-CoV-2 PLpro-NAB; [2]): -36.5%
- Interference inhibition [%] 20 µM based on product interference DTT BUFFER (Table S1, 20 µM, DTT buffer): 11.91%

Compound: CCOC(=O)C1=C(C)N=c2sc(=Cc3ccc(OCC(=O)O)cc3)c(=O)n2C1c1ccc(SC)cc1 (centres unmarked) [ML120]
- Interference inhibition [%] 20 µM based on product interference DTT BUFFER (Table S1, 20 µM, DTT buffer): 3.32%

Compound: Cc1cccc2c3c(ccc12)C1=C(C(=O)C3=O)[C@@H](C)CO1 [Dihydrotanshinone I]
- Interference inhibition [%] 20 µM based on product interference DTT BUFFER (Table S1, 20 µM, DTT buffer): -55.01%

Compound: O=C(Nc1ccccc1-c1cn2c(CN3CCNCC3)csc2n1)c1cnc2ccccc2n1 [SRT 1720]
- Interference inhibition [%] 20 µM based on product interference DTT BUFFER (Table S1, 20 µM, DTT buffer): 22.23%

Compound: CC1=CC(=O)c2ccccc2C1=O [Menadione]
- inhibition at 20 µM (SARS-CoV-2 PLpro-NAB; [1]): 115%
- inhibition at 20 µM (SARS-CoV-2 PLpro-NAB; [2]): -45.7%
- Interference inhibition [%] 20 µM based on product interference DTT BUFFER: -9.41%

Compound: CC[n+]1c(-c2ccccc2)c2cc(N)ccc2c2ccc(N)cc21 [Homidium Bromide]
- Interference inhibition [%] 20 µM based on product interference DTT BUFFER (Table S1, 20 µM, DTT buffer): 1.40%

Compound: Cc1cc(-c2ccc(/C=C3/SC(=Nc4ccc(Cl)c(C(=O)O)c4)NC3=O)o2)c([N+](=O)[O-])cc1C [PT 1]
- Interference inhibition [%] 20 µM based on product interference DTT BUFFER (Table S1, 20 µM, DTT buffer): 9.93%

Compound: Cn1cccc1/C=C1\C(=O)NC(=O)c2ccccc21 [BYK-204165]
- Interference inhibition [%] 20 µM based on product interference DTT BUFFER (Table S1, 20 µM, DTT buffer): -5.54%

Compound: CC[N+](C)(CC)CCC[n+]1c(-c2ccccc2)c2cc(N)ccc2c2ccc(N)cc21.[I-].[I-] [Propidium-Iodide]
- Interference inhibition [%] 20 µM based on product interference DTT BUFFER (Table S1, 20 µM, DTT buffer): 0.27%

Compound: CC1(C)CCC2=C(O1)C(=O)c1ccccc1C2=O [Alpha Lapachone]
- Interference inhibition [%] 20 µM based on product interference DTT BUFFER (Table S1, 20 µM, DTT buffer): -0.29%

Compound: Cc1cc(-c2ccc(/N=N/c3ccc4c(S(=O)(=O)O)cc(S(=O)(=O)O)c(N)c4c3O)c(C)c2)ccc1/N=N/c1ccc2c(S(=O)(=O)O)cc(S(=O)(=O)O)c(N)c2c1O [Evans Blue]
- Interference inhibition [%] 20 µM based on product interference DTT BUFFER (Table S1, 20 µM, DTT buffer): 6.47%

Compound: NC(Cc1cc(O)c(O)cc1O)C(=O)O (racemic) [6-Hydroxy-DL-DOPA]
- Interference inhibition [%] 20 µM based on product interference DTT BUFFER (Table S1, 20 µM, DTT buffer): 14.95%

Compound: SF1670
- Interference inhibition [%] 20 µM based on product interference DTT BUFFER (Table S1, 20 µM, DTT buffer): 9.17%

Compound: Ro-08-2750
- Interference inhibition [%] 20 µM based on product interference DTT BUFFER (Table S1, 20 µM, DTT buffer): 0.17%

Compound: O=C1C(=O)c2ccccc2-c2ccccc21 [9,10-Phenanthrenequinone]
- Interference inhibition [%] 20 µM based on product interference DTT BUFFER (Table S1, 20 µM, DTT buffer): -2.46%
